How the values were obtained:
adults with ADHD [1] = assay: Study A: weight and vital signs; type: in vivo, human; conditions: final evaluation (LOCF)
Method: The treatment group differences in vital signs were analyzed using a Grizzle Model similar to the model used for the efficacy analyses with the exclusion of period-specific baselines.

adults with ADHD [2] = conditions: human, in vivo, 4 weeks
adults with ADHD [3] = assay: Study A: ABT-894 Adult ADHD Dose-Ranging crossover clinical study, efficacy rating scales; type: in vivo, human
Method: A clinical study (Study A) was conducted to assess the safety and efficacy of ABT-894 compared to placebo in adults with ADHD and to evaluate the dose-response relationship.
A total of 243 subjects aged 18 to 60 years old meeting DSM-IV-TR criteria for ADHD were randomized across the 5 dose groups. Male or female patients were included. […] The disposition of the study subjects is further discussed with the study results below.
Subjects in each dose group received, in random order, both ABT-894 and placebo according to a 2×2 crossover design. Each treatment period was 4 weeks separated by a 2-week washout period.
Each site was assigned to one of two cohorts (Cohort A or Cohort B) in approximately a 3:2 ratio. Subjects in Cohort A were randomized in equal proportions to one of 6 treatment sequences in 3 dose groups, and subjects in Cohort B were randomized in equal proportions to one of 4 treatment sequences in 2 dose groups, as shown in Table 1. Within each dose group subjects received either ABT-894 or atomoxetine in Period 1 and placebo in Period 2, or placebo in Period 1 and ABT-894 or atomoxetine in Period 2.
The study medication was dispensed in the form of a capsule. Each capsule contained ABT-894, atomoxetine, or placebo. The capsules were made to look identical.
The primary efficacy endpoint was the Conners' Adult ADHD Rating Scale—Investigator Rated (CAARS:Inv) Total Score (18 items) at the final evaluation of each 4-week treatment period. The CAARS:Inv was assessed at baseline and Days 7. 14. 21, and 28 of each period. Each CAARS:Inv item was rated on a 4-point scale of frequency of occurrence (0=not at all, never; 3=very much. very frequently) during the previous 7 days.
Secondary efficacy endpoints included the CAARS:Inv Inattentive and Hyperactive/Impulsive Subscale Scores, Clinical Global Impression-ADHD-Severity Scale (CGI-ADHD-S). Adult ADHD Investigator Symptom Report Scale (AISRS), including total and subscales, and the Self-rated Connors Adult ADHD Rating Scale (CAARS-Self). Health outcomes including the Adult ADHD Quality of Life Scale (AAQoL) and Work Productivity and Activity Impairment Questionnaire (WPAI) were used to evaluate the validity of these scales in this study population for use in subsequent clinical trials.
The primary analysis was performed on each dose group separately according to the Statistical Analysis Plan (SAP). The primary statistical model that was used for analyzing the primary efficacy variable, the CAARS:INV total score, and all other secondary efficacy variables was determined by a SAP specified testing procedure. The comparability between two sequences for a given dose group with respect to the difference between period-specific baselines was tested using a one-way ANCOVA with the term of treatment and the Period I baseline as the covariate at the significance level of 0.10. The equal residual effect from Period I to Period II between two different sequences for a given dose group was tested using a standard model for cross-over data analysis, Grizzle model, on the term of “sequence” at the significance level of 0.10.
After the study blind was broken, across 5 dose groups. all the tests accepted the null hypothesis that there was no statistically significant treatment effect for the differences between the period-specific baselines. The tests also accepted the null hypothesis that there was no period residual effect in any of the dose groups. Accordingly, the Grizzle model was used as the primary analysis model to analyze treatment group difference for CAARS:INV total score at Day 28 for each dose group. The Grizzle Model was carried out by SAS PROC Mixed with the terms of study center. sequence, subjects within sequence, period, treatment, as well as period-specific baselines as covariates.
The primary efficacy dataset included all subjects who completed both periods of the study (completers dataset). […]

[4] = ABT-894 1 mg QD, day 28, completers N = 40
[5] = ABT-894 2 mg QD, day 28, completers N = 37
[6] = ABT-894 4 mg BID, day 28, completers N = 43
[7] = ABT-894 4 mg QD, day 28, completers N = 36

Clc1cc(N2C[C@@H]3CN[C@@H]3C2)cnc1Cl [ABT-894, 3-(5,6-Dichloro-pyridin-3-yl)-1S,5S-3,6-diazabicyclo[3.2.0]heptane]
Diastolic BP, mean difference from placebo (adults with ADHD [1]; ABT-894 1 mg QD): 0.28 mm Hg
Pulse, mean difference from placebo (adults with ADHD [1]; ABT-894 1 mg QD): −0.24 bpm
Systolic BP, mean difference from placebo (adults with ADHD [1]; ABT-894 1 mg QD): 1.36 mm Hg
Weight, mean difference from placebo (adults with ADHD [1]; ABT-894 1 mg QD): 0.48 kg
Diastolic BP, mean difference from placebo (adults with ADHD [1]; ABT-894 2 mg QD): 0.62 mm Hg
Pulse, mean difference from placebo (adults with ADHD [1]; ABT-894 2 mg QD): 0.42 bpm
Systolic BP, mean difference from placebo (adults with ADHD [1]; ABT-894 2 mg QD): 1.07 mm Hg
Weight, mean difference from placebo (adults with ADHD [1]; ABT-894 2 mg QD): 0.09 kg
Diastolic BP, mean difference from placebo (adults with ADHD [1]; ABT-894 4 mg BID): −2.21 mm Hg
Pulse, mean difference from placebo (adults with ADHD [1]; ABT-894 4 mg BID): 0.98 bpm
Systolic BP, mean difference from placebo (adults with ADHD [1]; ABT-894 4 mg BID): −0.48 mm Hg
Weight, mean difference from placebo (adults with ADHD [1]; ABT-894 4 mg BID): -0.08 kg
Diastolic BP, mean difference from placebo (adults with ADHD [1]; ABT-894 4 mg QD): 0.23 mm Hg
Pulse, mean difference from placebo (adults with ADHD [1]; ABT-894 4 mg QD): 3.14 bpm
Systolic BP, mean difference from placebo (adults with ADHD [1]; ABT-894 4 mg QD): −0.08 mm Hg
Weight, mean difference from placebo (adults with ADHD [1]; ABT-894 4 mg QD): 0.04 kg
Influenza-like illness, % of subjects (adults with ADHD [2]): (0) %
Influenza-like illness, number of subjects (adults with ADHD [2]): 0 subjects
AISRS Hyperactivity Score, mean difference from placebo (adults with ADHD [3]; [4]): 1.53 (−0.8, 3.8)
AISRS Inattention Score, mean difference from placebo (adults with ADHD [3]; [4]): 1.72 (−0.6, 4.1)
AISRS Total Score, mean difference from placebo (adults with ADHD [3]; [4]): 3.19 (−1.2, 7.6)
CAARS:Inv ADHD Index, mean difference from placebo (adults with ADHD [3]; [4]): 1.84 (−0.0. 3.7)
CAARS:Inv Hyperactive/Impulsive subscale score, mean difference from placebo (adults with ADHD [3]; [4]): 0.93 (−0.2, 2.0)
CAARS:Inv Inattentive subscale score, mean difference from placebo (adults with ADHD [3]; [4]): 0.94 (−1.5, 3.4)
CAARS:Inv Total Score, mean difference from placebo (adults with ADHD [3]; [4]): 2.11 (−2.4, 6.6)
CAARS:Self ADHD Index, mean difference from placebo (adults with ADHD [3]; [4]): 2.04 (0.2, 3.9)
CAARS:Self Hyperactivity Score, mean difference from placebo (adults with ADHD [3]; [4]): 0.68 (−0.4, 1.8)
CAARS:Self Impulsivity Score, mean difference from placebo (adults with ADHD [3]; [4]): 0.65 (−0.1, 1.4)
CAARS:Self Inattention/Memory Score, mean difference from placebo (adults with ADHD [3]; [4]): 0.60 (−0.5, 1.7)
CAARS:Self Problem with Self-concept Score, mean difference from placebo (adults with ADHD [3]; [4]): 0.51 (−0.2, 1.2)
CAARS:Self Total Score, mean difference from placebo (adults with ADHD [3]; [4]): 3.57 (−0.4, 7.5)
CGI-ADHD-S, mean difference from placebo (adults with ADHD [3]; [4]): 0.04 (−0.3, 0.4)
Measures of sustained attention, inhibitory control, and executive function (adults with ADHD [3]; ABT-894 2 mg QD): improved measures of sustained attention, inhibitory control, and executive function
AISRS Hyperactivity Score, mean difference from placebo (adults with ADHD [3]; [5]): −1.11 (−3.0, 0.7)
AISRS Inattention Score, mean difference from placebo (adults with ADHD [3]; [5]): −1.59 (−3.6, 0.4)
AISRS Total Score, mean difference from placebo (adults with ADHD [3]; [5]): −2.72 (−6.4, 1.0)
CAARS:Inv ADHD Index, mean difference from placebo (adults with ADHD [3]; [5]): −1.52 (−3.3, 0.2)
CAARS:Inv Hyperactive/Impulsive subscale score, mean difference from placebo (adults with ADHD [3]; [5]): −0.55 (−1.4, 0.3)
CAARS:Inv Inattentive subscale score, mean difference from placebo (adults with ADHD [3]; [5]): −1.92 (−3.8, −0.1)
CAARS:Inv Total Score, mean difference from placebo (adults with ADHD [3]; [5]): −3.18 (6.7,0.3)
CAARS:Self ADHD Index, mean difference from placebo (adults with ADHD [3]; [5]): −1.50 (−3.3, 0.3)
CAARS:Self Hyperactivity Score, mean difference from placebo (adults with ADHD [3]; [5]): −0.57 (−1.4, 0.3)
CAARS:Self Impulsivity Score, mean difference from placebo (adults with ADHD [3]; [5]): −0.48 (−1.3, 0.3)
CAARS:Self Inattention/Memory Score, mean difference from placebo (adults with ADHD [3]; [5]): −0.23 (−1.2, 0.8)
CAARS:Self Problem with Self-concept Score, mean difference from placebo (adults with ADHD [3]; [5]): −0.57 (−1.6, 0.5)
CAARS:Self Total Score, mean difference from placebo (adults with ADHD [3]; [5]): −2.64 (−6.6, 1.3)
CGI-ADHD-S, mean difference from placebo (adults with ADHD [3]; [5]): −0.31 (−0.6, 0.0)
Efficacy measures compared with atomoxetine (adults with ADHD [3]; ABT-894 4 mg BID vs atomoxetine): comparable across efficacy measures
AISRS Hyperactivity Score, mean difference from placebo (adults with ADHD [3]; [6]): −3.58 (−5.6, −1.6)
AISRS Inattention Score, mean difference from placebo (adults with ADHD [3]; [6]): −4.26 (−6.6, −1.9)
AISRS Total Score, mean difference from placebo (adults with ADHD [3]; [6]): −8.07 (−12.2, −3.9)
CAARS:Inv ADHD Index, mean difference from placebo (adults with ADHD [3]; [6]): −3.37 (−5.3. −1.4)
CAARS:Inv Hyperactive/Impulsive subscale score, mean difference from placebo (adults with ADHD [3]; [6]): −1.90 (−3.0, −0.8)
CAARS:Inv Inattentive subscale score, mean difference from placebo (adults with ADHD [3]; [6]): −4.08 (−6.4, −1.7)
CAARS:Self ADHD Index, mean difference from placebo (adults with ADHD [3]; [6]): −3.31 (−5.2, −1.4)
CAARS:Self Hyperactivity Score, mean difference from placebo (adults with ADHD [3]; [6]): −1.74 (−2.9, −0.6)
CAARS:Self Impulsivity Score, mean difference from placebo (adults with ADHD [3]; [6]): −0.70 (−1.4, −0.0)
CAARS:Self Inattention/Memory Score, mean difference from placebo (adults with ADHD [3]; [6]): −1.40 (−2.5, −0.3)
CAARS:Self Problem with Self-concept Score, mean difference from placebo (adults with ADHD [3]; [6]): −1.39 (−2.5, −0.3)
CAARS:Self Total Score, mean difference from placebo (adults with ADHD [3]; [6]): −7.34 (−11.6, −3.1)
CGI-ADHD-S, mean difference from placebo (adults with ADHD [3]; [6]): −0.58 (−1.0, −0.2)
AISRS Hyperactivity Score, mean difference from placebo (adults with ADHD [3]; [7]): −0.81 (−2.6, 1.0)
AISRS Inattention Score, mean difference from placebo (adults with ADHD [3]; [7]): 0.81 (−1.2, 2.8)
AISRS Total Score, mean difference from placebo (adults with ADHD [3]; [7]): −0.13 (−3.6, 3.4)
CAARS:Inv ADHD Index, mean difference from placebo (adults with ADHD [3]; [7]): −0.12 (−1.8, 1.5)
CAARS:Inv Hyperactive/Impulsive subscale score, mean difference from placebo (adults with ADHD [3]; [7]): −1.07 (−2.1, −0.0)
CAARS:Inv Inattentive subscale score, mean difference from placebo (adults with ADHD [3]; [7]): 0.60 (−1.5, 2.7)
CAARS:Inv Total Score, mean difference from placebo (adults with ADHD [3]; [7]): 0.23 (−3.2, 3.7)
CAARS:Self ADHD Index, mean difference from placebo (adults with ADHD [3]; [7]): −0.19 (−1.9, 1.5)
CAARS:Self Hyperactivity Score, mean difference from placebo (adults with ADHD [3]; [7]): −0.78 (−1.8, 0.2)
CAARS:Self Impulsivity Score, mean difference from placebo (adults with ADHD [3]; [7]): −0.02 (−0.9, 0.9)
CAARS:Self Inattention/Memory Score, mean difference from placebo (adults with ADHD [3]; [7]): 0.11 (−0.9, 1.2)
CAARS:Self Problem with Self-concept Score, mean difference from placebo (adults with ADHD [3]; [7]): 0.33 (−0.7, 1.4)
CAARS:Self Total Score, mean difference from placebo (adults with ADHD [3]; [7]): −1.13 (−5.2, 2.9)
CGI-ADHD-S, mean difference from placebo (adults with ADHD [3]; [7]): −0.06 (−0.3, 0.2)
Efficacy in the treatment of the core symptoms of ADHD (adults with ADHD [3]; human patients, compared to placebo): statistically significant efficacy compared to placebo

Reference: patent US8222278B2, “Treatment of attention-deficit/hyperactivity disorder” (Abbott Laboratories, priority 2008, dated 2012)
